Series [1] is described as follows: UV/VIS absorption spectra. The class given is physicochemical. The following applies: 10 μM compound in 50 mM potassium phosphate buffer (pH 7.0). On the procedure:
The UV/VIS absorption spectra were obtained with 10 μM compound solution in 50 mM potassium phosphate buffer (pH 7.0) in a final volume of 3 mL. Measurements were carried out using a Lambda 245 spectrophotometer from Perkin Elmer.

For a further series, the system named is calf thymus DNA. As to the kind of experiment: Fluorescence emission and enhancement of compounds bound to calf thymus DNA. The following applies: 0.8 μM compound with 500 ng/ml calf thymus DNA in TE buffer; for Emission Max: excited at 488 nm; for Fluorescence Enhancement: emission area 500-715 nm compared to compound 1, defined as 1000-fold. Format: binding. On the procedure:
Compounds 1-65 were prepared and their fluorescence absorption and emission characteristics were measured. Intrinsic fluorescence of the compounds only (without DNA) was negligible. Emission spectra for the compounds bound to dsDNA were obtained by incubating 0.8 μM compound with 500 ng/ml calf thymus DNA in TE buffer (10 mM Tris-HCl, pH 7.5, 1 mM EDTA) in a final volume of 3 ml. Measurements were made using PerkinElmer LS 55 (F-11) Fluorescence spectrometer. Samples were excited at 488 nm and fluorescence emission was measured with emission slit widths of 2.5 nm. Absorption maxima were determined according to standard techniques.
Fluorescence enhancement measurements of the compounds were obtained by incubating 0.8 μM compound with 500 ng/ml calf thymus DNA with compounds at a final concentration of 0.8 μM in TE buffer. Compound 1 was used as an internal standard to control for variability (e.g., in excitation light intensity). The area-under-curve of fluorescence emission spectra from 500 nm to 715 nm was calculated, and compared to that of compound 1, which was defined as having 1000-fold fluorescence enhancement relative to fluorescence of the compound alone.

Here are results for 26 compounds from patent US20200263231A1, “Fluorogenic dyes for high sensitivity DNA detection” (LIFE TECHNOLOGIES CORPORATION, priority 2016, published 2020).

As for `CCN(CC[N+](C)(C)C)C1=C/C(=C/c2sc3ccccc3[n+]2C)c2ccc(OC)cc2N1c1ccccc1.[I-].[I-]` [Compound 56], the “Absorbance Max” value in series [1] worked out at 499 nm. In the series with calf thymus DNA, the “Emission Max” value is 523 nm and the “Fluorescence Enhancement” value is given as 894 fold.

For the compound `CCC[N+](C)(C)CCN(CC)C1=C/C(=C/c2sc3ccccc3[n+]2C)c2ccccc2N1c1ccccc1.[I-].[I-]` [Compound 31], the “Absorbance Max” value in series [1] was found to be 506 nm. Besides, in the series on calf thymus DNA, the “Emission Max” value worked out at 527 nm and the “Fluorescence Enhancement” value stood at 642 fold.

In the case of `CC[N+](C)(C)CCCN(C)C1=C/C(=C/c2sc3ccccc3[n+]2C)c2ccccc2N1c1ccccc1.[I-].[I-]` [Compound 23], the “Absorbance Max” value in series [1] amounted to 498 nm. In the series on calf thymus DNA, the “Emission Max” value was 524 nm and the “Fluorescence Enhancement” value was found to be 622 fold.

For `CCN(CCC[N+](C)(C)CC)C1=C/C(=C/c2sc3ccccc3[n+]2C)c2ccccc2N1c1ccccc1.[I-].[I-]` [Compound 17], the “Absorbance Max” value in series [1] worked out at 496 nm. Also, in the series on calf thymus DNA, the “Emission Max” value is on record as 523 nm and the “Fluorescence Enhancement” value is 865 fold.

As to `CCCN(CCC[N+](C)(C)Cc1ccccc1)C1=C/C(=C\c2sc3ccccc3[n+]2C)c2ccccc2N1c1ccccc1.[Br-].[Cl-]` [Compound 6], the “Absorbance Max” value in series [1] is 502 nm. In the series on calf thymus DNA, the “Emission Max” value came to 523 nm and the “Fluorescence Enhancement” value is on record as 979 fold.

Turning to `CN(CCC[N+](C)(C)C)C1=C/C(=C/c2sc3ccccc3[n+]2C)c2ccccc2N1c1ccccc1.[I-].[I-]` [Compound 22], the “Absorbance Max” value in series [1] is listed as 497 nm. Moreover, in the series with calf thymus DNA, the “Emission Max” value came out at 520 nm and the “Fluorescence Enhancement” value came out at 639 fold.

With `CCCCN(CCC[N+](C)(C)C)C1=C/C(=C/c2sc3ccccc3[n+]2C)c2ccccc2N1c1ccccc1.[I-].[I-]` [Compound 9], the “Absorbance Max” value in series [1] stood at 496 nm. In the series with calf thymus DNA, the “Emission Max” value turned out to be 525 nm and the “Fluorescence Enhancement” value was 908 fold.

As to `CCCN(CCC[N+](C)(C)Cc1ccccc1)C1=C/C(=C/c2sc3ccccc3[n+]2C)c2ccc(OC)cc2N1c1ccccc1.[Br-].[I-]` [Compound 46], in series [1], the “Absorbance Max” value stood at 494 nm. In addition, in the series on calf thymus DNA, the “Emission Max” value is 520 nm and the “Fluorescence Enhancement” value amounted to 931 fold.

Take `CCN(CCN(C)C)C1=C/C(=C/c2sc3ccccc3[n+]2C)c2ccc(OC)cc2N1c1ccccc1.[I-]` [Compound 55]: the “Absorbance Max” value in series [1] is on record as 496 nm. In the series with calf thymus DNA, the “Emission Max” value is recorded as 520 nm and the “Fluorescence Enhancement” value came out at 908 fold.

On to `CCCCN(CCC[N+](C)(C)CCO)C1=CC(=Cc2sc3ccccc3[n+]2C)c2ccc(OC)cc2N1c1ccccc1.[I-].[I-]` [Compound 38], for which the “Absorbance Max” value in series [1] was determined as 489 nm. Moreover, in the series on calf thymus DNA, the “Emission Max” value is 520 nm and the “Fluorescence Enhancement” value is given as 1089 fold.

Take `CCN(CCCN(C)C)C1=C/C(=C/c2sc3ccccc3[n+]2C)c2ccccc2N1c1ccccc1.[I-]` [Compound 15]: in series [1], the “Absorbance Max” value was 495 nm. Further, in the series on calf thymus DNA, the “Emission Max” value amounted to 524 nm and the “Fluorescence Enhancement” value amounted to 864 fold.

`CCN(CCC[N+](C)(C)CC)C1=CC(=Cc2sc3ccccc3[n+]2C)c2ccc(OC)cc2N1c1ccccc1.[I-].[I-]` [Compound 50]: in series [1], the “Absorbance Max” value is 490 nm. Besides, in the series with calf thymus DNA, the “Emission Max” value was found to be 519 nm and the “Fluorescence Enhancement” value is on record as 1020 fold.

Turning to `CCCCN(CCC[N+](C)(C)Cc1cccc(OC)c1)C1=CC(=Cc2sc3ccccc3[n+]2C)c2ccc(OC)cc2N1c1ccccc1.[Br-].[I-]` [Compound 40], the “Absorbance Max” value in series [1] is given as 490 nm. In the series on calf thymus DNA, the “Emission Max” value was 520 nm and the “Fluorescence Enhancement” value came to 1050 fold.

Regarding `CCN(CC[N+](C)(C)C)C1=C/C(=C/c2sc3ccccc3[n+]2C)c2ccccc2N1c1ccccc1.[Cl-].[I-]` [Compound 29], in series [1], the “Absorbance Max” value is given as 506 nm. Also, in the series with calf thymus DNA, the “Emission Max” value amounted to 528 nm and the “Fluorescence Enhancement” value came out at 648 fold.

On to `CCCN(CCC[N+](C)(C)CCC)C1=C/C(=C/c2sc3ccccc3[n+]2C)c2ccccc2N1c1ccccc1.[I-].[I-]` [Compound 4], for which, in series [1], the “Absorbance Max” value is listed as 501 nm. For the same compound, in the series with calf thymus DNA, the “Emission Max” value amounted to 524 nm and the “Fluorescence Enhancement” value turned out to be 925 fold.

Regarding `C[n+]1c(/C=C2/C=C(n3cnc4ccccc43)N(c3ccccc3)c3ccccc32)sc2ccccc21.[Cl-]` [Compound 63], in series [1], the “Absorbance Max” value is recorded as 518 nm. In the series on calf thymus DNA, the “Emission Max” value was found to be 543 nm and the “Fluorescence Enhancement” value worked out at 42 fold.

For the compound `CCN(CCC[N+](C)(C)Cc1cccc(OC)c1)C1=CC(=Cc2sc3ccccc3[n+]2C)c2ccc(OC)cc2N1c1ccccc1.[Br-].[I-]` [Compound 54], the “Absorbance Max” value in series [1] is reported as 490 nm. Further, in the series with calf thymus DNA, the “Emission Max” value is given as 517 nm and the “Fluorescence Enhancement” value was found to be 1008 fold.

On to `CCCCN(CCC[N+](C)(C)Cc1ccccc1)C1=CC(=Cc2sc3ccccc3[n+]2C)c2ccc(OC)cc2N1c1ccccc1.[I-].[I-]` [Compound 39], for which the “Absorbance Max” value in series [1] turned out to be 490 nm. Further, in the series on calf thymus DNA, the “Emission Max” value was 517 nm and the “Fluorescence Enhancement” value came to 1080 fold.

Turning to `CN(CCC[N+](C)(C)Cc1ccccc1)C1=C/C(=C/c2sc3ccccc3[n+]2C)c2ccccc2N1c1ccccc1.[I-].[I-]` [Compound 26], the “Absorbance Max” value in series [1] was determined as 498 nm. In the series with calf thymus DNA, the “Emission Max” value worked out at 521 nm and the “Fluorescence Enhancement” value is 653 fold.

Take `CCN(CC[N+](C)(C)CCO)C1=C/C(=C\c2sc3ccccc3[n+]2C)c2ccc(OC)cc2N1c1ccccc1.[I-].[I-]` [Compound 59]: in series [1], the “Absorbance Max” value is given as 498 nm. Moreover, in the series on calf thymus DNA, the “Emission Max” value was determined as 520 nm and the “Fluorescence Enhancement” value turned out to be 863 fold.

Regarding `C[n+]1c(/C=C2/C=C(n3ccnc3)N(c3ccccc3)c3ccccc32)sc2ccccc21.[I-]` [Compound 61], the “Absorbance Max” value in series [1] stood at 514 nm. Besides, in the series on calf thymus DNA, the “Emission Max” value was determined as 540 nm and the “Fluorescence Enhancement” value turned out to be 26 fold.

For the compound `CCC[N+](C)(C)CCCN(CC)C1=CC(=Cc2sc3ccccc3[n+]2C)c2ccc(OC)cc2N1c1ccccc1.[I-].[I-]` [Compound 51], the “Absorbance Max” value in series [1] amounted to 490 nm. In addition, in the series on calf thymus DNA, the “Emission Max” value is on record as 520 nm and the “Fluorescence Enhancement” value is 1016 fold.

Take `CCN(CCC[N+](C)(C)CCO)C1=C/C(=C/c2sc3ccccc3[n+]2C)c2ccccc2N1c1ccccc1.[I-].[I-]` [Compound 18]: the “Absorbance Max” value in series [1] was determined as 496 nm. Also, in the series on calf thymus DNA, the “Emission Max” value came out at 524 nm and the “Fluorescence Enhancement” value was 882 fold.

Consider `CCCN(CCC[N+](C)(C)CCO)C1=CC(=Cc2sc3ccccc3[n+]2C)c2ccc(OC)cc2N1c1ccccc1.[I-].[I-]` [Compound 45], for which the “Absorbance Max” value in series [1] is reported as 494 nm. Besides, in the series on calf thymus DNA, the “Emission Max” value stood at 517 nm and the “Fluorescence Enhancement” value amounted to 1093 fold.

Regarding `CCCCN(CCC[N+](C)(C)CCO)C1=C/C(=C/c2sc3ccccc3[n+]2C)c2ccccc2N1c1ccccc1.[I-].[I-]` [Compound 12], in series [1], the “Absorbance Max” value came out at 496 nm. Also, in the series with calf thymus DNA, the “Emission Max” value amounted to 525 nm and the “Fluorescence Enhancement” value is 937 fold.

For the compound `CCC[N+](C)(C)CCN(CC)C1=C/C(=C/c2sc3ccccc3[n+]2C)c2ccc(OC)cc2N1c1ccccc1.[I-].[I-]` [Compound 58], the “Absorbance Max” value in series [1] amounted to 496 nm. Besides, in the series with calf thymus DNA, the “Emission Max” value is on record as 521 nm and the “Fluorescence Enhancement” value is given as 874 fold.
